Assay [1] deals with hPASK (full length) (Homo sapiens (Human), UniProt Q96RG2). As to the kind of experiment: PAS Kinase Luminescence Assay (Kinase-Glo), full length. It counts as biochemical. As to the method:
(§1) PAS Kinase Luminescence Assay
(§2) One assay for purified hPASK activity utilizes the Kinase-Glo Luminescent Kinase Assay (Promega), which quantifies the amount of ATP remaining in solution following kinase reaction. The assay is carried out in a 96-well plate format and is performed by adding a volume of Kinase-Glo Reagent (Promega, catalog #V3771) equal to the volume of solution in the well of a completed kinase reaction. Kinase-Glo reagent contains Luciferase and its substrate. After addition to a kinase reaction it allows to measure luminescence. The amount of ATP left in solution at the time of Kinase-Glo Plus addition is directly proportional to the luminescence that is measured in each well, and inversely correlated with kinase activity.
(§3) Purified hPASK from insect cells (0.02 μg) is added to a 50 μL reaction mix containing 40 mM HEPES (pH 7.0), 100 mM KCl, 5 mM MgCl2, 1 mM DTT and 1 μg of MBP protein. Inhibitory compounds are then added and the mixture is incubated for 10 min at 25° C. before adding 5 μL of ATP (at desired concentration). The reaction is allowed to proceed at 25° C. for 1 hour before adding 50 μL of Kinase-Glo reagent. The luminescence is measured as soon as 10 minutes after Kinase-Glo reagent is added.
(§4) Results are shown below in Table 1, where NT means not tested.

Assay [2] has as its target hPASK (kinase domain) (Homo sapiens (Human), UniProt Q96RG2). As to the kind of experiment: PAS Kinase Luminescence Assay (Kinase-Glo), kinase domain. The format is biochemical. As to the method:
as §1, §2, §3, §4
(In general: Kinase-Glo reads ATP consumption through a luciferase reaction.)

Each structure is given as a SMILES string. pIC50: −log10 of the molar value. Some results are limits rather than exact numbers.

The term pIC50 denotes the IC50 on a negative log10 scale, so that one unit is a factor of ten. A high value points to a small IC50.

Sequence of hPASK (full length) (Q96RG2 whole entry): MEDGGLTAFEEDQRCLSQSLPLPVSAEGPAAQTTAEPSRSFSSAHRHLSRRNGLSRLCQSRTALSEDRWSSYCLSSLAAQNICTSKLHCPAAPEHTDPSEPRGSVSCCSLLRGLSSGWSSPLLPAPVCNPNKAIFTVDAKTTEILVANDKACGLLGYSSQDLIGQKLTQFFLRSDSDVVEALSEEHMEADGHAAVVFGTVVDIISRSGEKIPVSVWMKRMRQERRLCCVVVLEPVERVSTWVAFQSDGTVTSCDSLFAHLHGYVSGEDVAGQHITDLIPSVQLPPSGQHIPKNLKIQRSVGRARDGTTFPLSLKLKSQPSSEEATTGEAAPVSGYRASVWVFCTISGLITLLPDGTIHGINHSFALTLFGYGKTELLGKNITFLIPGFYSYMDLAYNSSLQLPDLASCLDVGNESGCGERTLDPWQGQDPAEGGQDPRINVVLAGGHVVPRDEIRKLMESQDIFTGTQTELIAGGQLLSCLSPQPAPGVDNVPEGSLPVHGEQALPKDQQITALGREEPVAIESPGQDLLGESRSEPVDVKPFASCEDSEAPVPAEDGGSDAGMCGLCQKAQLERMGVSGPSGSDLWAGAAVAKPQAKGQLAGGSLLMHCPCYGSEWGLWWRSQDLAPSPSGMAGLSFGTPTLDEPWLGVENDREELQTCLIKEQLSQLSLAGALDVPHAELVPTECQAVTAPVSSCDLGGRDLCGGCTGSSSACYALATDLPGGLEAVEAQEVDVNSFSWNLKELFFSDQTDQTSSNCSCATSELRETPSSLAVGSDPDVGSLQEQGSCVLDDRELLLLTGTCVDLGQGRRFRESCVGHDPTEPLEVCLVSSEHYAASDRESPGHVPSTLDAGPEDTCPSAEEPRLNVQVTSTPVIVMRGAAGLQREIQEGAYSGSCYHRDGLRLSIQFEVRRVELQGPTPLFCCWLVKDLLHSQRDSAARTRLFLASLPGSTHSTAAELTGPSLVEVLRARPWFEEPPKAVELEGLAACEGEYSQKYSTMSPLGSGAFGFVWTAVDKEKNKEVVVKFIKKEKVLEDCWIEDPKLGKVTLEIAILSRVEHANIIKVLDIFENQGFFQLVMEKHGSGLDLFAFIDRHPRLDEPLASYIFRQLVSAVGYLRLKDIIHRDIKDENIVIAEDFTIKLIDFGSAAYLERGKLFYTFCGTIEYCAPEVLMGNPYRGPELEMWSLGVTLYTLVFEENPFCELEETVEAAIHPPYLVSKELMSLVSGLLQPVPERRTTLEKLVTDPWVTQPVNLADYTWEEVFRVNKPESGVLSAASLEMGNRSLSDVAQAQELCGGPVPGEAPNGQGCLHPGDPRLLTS
Sequence of hPASK (kinase domain) (Q96RG2 999-1251): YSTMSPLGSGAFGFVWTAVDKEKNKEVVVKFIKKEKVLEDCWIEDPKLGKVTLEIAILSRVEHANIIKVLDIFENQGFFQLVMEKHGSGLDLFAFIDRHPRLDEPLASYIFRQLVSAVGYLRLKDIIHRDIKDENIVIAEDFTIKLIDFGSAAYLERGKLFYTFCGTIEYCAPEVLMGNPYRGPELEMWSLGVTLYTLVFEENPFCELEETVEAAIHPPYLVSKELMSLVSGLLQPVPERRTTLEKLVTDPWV

As to `O=c1cc(-c2ccc([N+](=O)[O-])cc2)[nH]c2c(-c3ccc(Cl)cc3)c(Cc3ccccc3)nn12` [Example 9, 2-Benzyl-3-(4-chloro-phenyl)-5-(4-nitro-phenyl)-4H-pyrazolo[1,5-a]pyrimidin-7-one], the pIC50 in assay [1] and in assay [2] was not below 5.00 in each case.

With `O=c1cc(-c2ccccc2)[nH]c2c(-c3ccc(Cl)cc3)c(Cc3ccccc3)nn12` [Example 10, 2-Benzyl-3-(4-chloro-phenyl)-5-phenyl-4H-pyrazolo[1,5-a]pyrimidin-7-one], the pIC50 in assay [1] and in assay [2] was not above 5.00 in each case.

For `O=c1cc(-c2ccccc2)[nH]c2c(-c3cccc4ccccc34)c(Cc3ccccc3)nn12` [Example 11, 2-Benzyl-3-naphthalen-1-yl-5-phenyl-4H-pyrazolo[1,5-a]pyrimidin-7-one], the pIC50 in assay [1] and in assay [2] was not above 5.00 each time.

Take `COc1ccc(Cc2nn3c(=O)cc(-c4ccccc4)[nH]c3c2-c2ccccc2)cc1` [Example 12, 2-(4-Methoxy-benzyl)-3,5-diphenyl-4H-pyrazolo[1,5-a]pyrimidin-7-one]: the pIC50 in assay [1] and in assay [2] was not above 5.00 in each case.

As to `Cc1nn2c(=O)c(C#N)c(-c3ccccc3)[nH]c2c1-c1ccccc1` [Example 13, 2-Methyl-7-oxo-3,5-diphenyl-4,7-dihydro-pyrazolo[1,5-a]pyrimidine-6-carbonitrile], the pIC50 in assay [1] is not above 5.00; in assay [2], not below 5.00.

Regarding `COc1ccc(-c2cc(=O)n3nc(C)c(-c4ccccc4)c3[nH]2)cc1` [Example 14, 5-(4-Methoxy-phenyl)-2-methyl-3-phenyl-4H-pyrazolo[1,5-a]pyrimidin-7-one], the pIC50 in assay [1] and in assay [2] was not below 5.00 in each case.

For the compound `Cc1nn2c(=O)cc(-c3ccccc3)[nH]c2c1-c1ccc(F)cc1` [Example 15, 3-(4-Fluoro-phenyl)-2-methyl-5-phenyl-4H-pyrazolo[1,5-a]pyrimidin-7-one], the pIC50 in assay [1] and in assay [2] was not above 5.00 each time.

Take `COc1ccccc1-c1cc(=O)n2nc(C)c(-c3ccccc3)c2[nH]1` [Example 16, 5-(2-Methoxy-phenyl)-2-methyl-3-phenyl-4H-pyrazolo[1,5-a]pyrimidin-7-one]: the pIC50 in assay [1] and in assay [2] was not below 5.00 in each case.

As for `Cc1nn2c(=O)cc(-c3ccc(Cl)cc3)[nH]c2c1-c1ccccc1` [Example 17, 5-(4-Chloro-phenyl)-2-methyl-3-phenyl-4H-pyrazolo[1,5-a]pyrimidin-7-one], the pIC50 in assay [1] and in assay [2] was not below 5.00 each time.

As for `CCCc1cc(=O)n2nc(Cc3ccccc3)c(-c3ccc(Cl)cc3)c2[nH]1` [Example 18, 2-Benzyl-3-(4-chloro-phenyl)-5-propyl-4H-pyrazolo[1,5-a]pyrimidin-7-one], the pIC50 in assay [1] and in assay [2] was not above 5.00 each time.

On to `COCc1cc(=O)n2nc(Cc3ccccc3)c(-c3ccc(OC)cc3)c2[nH]1` [Example 19, 2-Benzyl-5-methoxymethyl-3-(4-methoxy-phenyl)-4H-pyrazolo[1,5-a]pyrimidin-7-one], for which the pIC50 in assay [1] and in assay [2] was not above 5.00 throughout.

Turning to `O=c1cc(Cc2ccccc2)[nH]c2c(-c3ccccc3)c(Cc3ccccc3)nn12` [Example 21, 2,5-Dibenzyl-3-phenyl-4H-pyrazolo[1,5-a]pyrimidin-7-one], the pIC50 in assay [1] and in assay [2] was not above 5.00 in each case.

`CCCc1cc(=O)n2nc(C)c(-c3ccc(Cl)cc3)c2[nH]1` [Example 22, 3-(4-Chloro-phenyl)-2-methyl-5-propyl-4H-pyrazolo[1,5-a]pyrimidin-7-one]: the negative logarithm of the IC50 (pIC50) in assay [1] and in assay [2] was not above 5.00 in each case.

In the case of `COc1ccc(-c2c(C)nn3c(=O)cc(Cc4ccccc4)[nH]c23)cc1` [Example 23, 5-Benzyl-3-(4-methoxy-phenyl)-2-methyl-4H-pyrazolo[1,5-a]pyrimidin-7-one], the pIC50 in assay [1] and in assay [2] was not above 5.00 throughout.

With `COCc1cc(=O)n2nc(Cc3ccccc3)c(-c3ccc(Cl)cc3)c2[nH]1` [Example 24, 2-Benzyl-3-(4-chloro-phenyl)-5-methoxymethyl-4H-pyrazolo[1,5-a]pyrimidin-7-one], the negative logarithm of the IC50 (pIC50) in assay [1] and in assay [2] was not above 5.00 each time.

For the compound `O=c1c2c([nH]c3c(-c4ccc(Cl)cc4)c(Cc4ccccc4)nn13)CCC2` [Example 26, 2-Benzyl-3-(4-chlorophenyl)-6,7-dihydro-4H-cyclopenta[d]pyrazolo[1,5-a]pyrimidin-8(5H)-one], the pIC50 in assay [1] and in assay [2] was not above 5.00 throughout.

`Cc1nn2c(=O)c3c([nH]c2c1-c1ccc(Cl)cc1)CCC3` [Example 27, 3-(4-Chlorophenyl)-2-methyl-6,7-dihydro-4H-cyclopenta[d]pyrazolo[1,5-a]pyrimidin-8(5H)-one]: the pIC50 in assay [1] and in assay [2] was not above 5.00 throughout.

With `Cc1cc(=O)n2nc(C)c(-c3ccc(Cl)cc3)c2[nH]1` [Example 28, 3-(4-Chloro-phenyl)-2,5-dimethyl-4H-pyrazolo[1,5-a]pyrimidin-7-one], the pIC50 in assay [1] and in assay [2] was not above 5.00 in each case.

For `COCc1cc(=O)n2nc(-c3ccc(Cl)cc3)cc2[nH]1` [Example 29, 2-(4-Chloro-phenyl)-5-methoxymethyl-4H-pyrazolo[1,5-a]pyrimidin-7-one], the pIC50 in assay [1] and in assay [2] was not above 5.00 throughout.

Regarding `COc1ccc(-c2nn3c(=O)cc(C(C)C)[nH]c3c2-c2ccccc2)cc1` [Example 30, 5-Isopropyl-2-(4-methoxy-phenyl)-3-phenyl-4H-pyrazolo[1,5-a]pyrimidin-7-one], the pIC50 in assay [1] and in assay [2] was not above 5.00 throughout.

Regarding `COc1ccc(Cc2nn3c(=O)cc(C)[nH]c3c2-c2ccccc2)cc1` [Example 31, 2-(4-Methoxy-benzyl)-5-methyl-3-phenyl-4H-pyrazolo[1,5-a]pyrimidin-7-one], the pIC50 in assay [1] and in assay [2] was not above 5.00 each time.

In the case of `CCc1c(C)[nH]c2c(-c3ccccc3)c(Cc3ccc(OC)cc3)nn2c1=O` [Example 32, 6-Ethyl-2-(4-methoxy-benzyl)-5-methyl-3-phenyl-4H-pyrazolo[1,5-a]pyrimidin-7-one], the pIC50 in assay [1] and in assay [2] was not above 5.00 throughout.

In the case of `CCc1c(C)[nH]c2c(-c3ccc(Cl)cc3)c(C)nn2c1=O` [Example 33, 3-(4-Chloro-phenyl)-6-ethyl-2,5-dimethyl-4H-pyrazolo[1,5-a]pyrimidin-7-one], the negative-log IC50 (pIC50) in assay [1] and in assay [2] was not above 5.00 in each case.

On to `O=c1cc(Cc2ccccc2)[nH]c2c(-c3ccccc3)c(-c3ccccc3)nn12` [Example 34, 5-Benzyl-2,3-diphenyl-4H-pyrazolo[1,5-a]pyrimidin-7-one], for which the pIC50 in assay [1] and in assay [2] was not above 5.00 throughout.

For the compound `O=c1c2c([nH]c3c(-c4ccccc4)c(-c4ccccc4)nn13)CCC2` [Example 35, 2,3-Diphenyl-6,7-dihydro-4H-cyclopenta[d]pyrazolo[1,5-a]pyrimidin-8(5H)-one], the pIC50 was not above 5.00 in assay [1] and not below 5.00 in assay [2].

Take `CCOC(=O)Cc1cc(=O)n2nc(-c3ccccc3)c(-c3ccccc3)c2[nH]1` [Example 36, (7-oxo-2,3-diphenyl-4,7-dihydro-pyrazolo[1,5-a]pyrimidin-5-yl)-acetic acid ethyl ester]: the negative logarithm of the IC50 (pIC50) in assay [1] and in assay [2] was not above 5.00 in each case.

For `Cc1ccc(-c2cc(=O)n3nc(C)c(-c4ccccc4)c3[nH]2)cc1` [Example 37, 2-Methyl-3-phenyl-5-p-tolyl-4H-pyrazolo[1,5-a]pyrimidin-7-one], the pIC50 in assay [1] and in assay [2] was not above 5.00 in each case.

As for `COc1ccc(-c2cc(=O)n3nc(C)c(-c4ccc(F)cc4)c3[nH]2)cc1` [Example 38, 3-(4-Fluoro-phenyl)-5-(4-methoxy-phenyl)-2-methyl-4H-pyrazolo[1,5-a]pyrimidin-7-one], the pIC50 in assay [1] and in assay [2] was not below 5.00 in each case.

With `Cc1cc(=O)n2nc(-c3cccc(Br)c3)cc2[nH]1` [Example 39, 2-(3-Bromo-phenyl)-5-methyl-4H-pyrazolo[1,5-a]pyrimidin-7-one], the pIC50 in assay [1] is not below 5.00; in assay [2], not above 5.00.
